Where two headings read alike, the source gives them in different places. One block for each compound: values may come before it.
Key:
Format in all cases: biochemical
[1] = target: T1, PDE1A (Homo sapiens, UniProt P54750); experiment: Phosphodiesterase enzyme screening assay, PDE1A
T1 construct: purchased Reaction Biology Corporation, Malvern, Pa
How it was run: (§1)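 Compounds were tested on commercial human PDE enzymes using a fluorescent cGMP substrate at 4.0 μM, incubated for one hour at room temperature. Values are means of four wells versus controls.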

[2] = target: T2, PDE9A2 (Homo sapiens, UniProt O76083); experiment: Phosphodiesterase enzyme screening assay, PDE9A2; conditions: read-out: Band (PDE9A2 IC50)
T2 construct: purchased Reaction Biology Corporation, Malvern, Pa
How it was run: as §1

[3] = target: T3, PDE1B (Homo sapiens, UniProt Q01064); experiment: Phosphodiesterase enzyme screening assay, PDE1B
T3 construct: purchased Reaction Biology Corporation, Malvern, Pa
How it was run: as §1

[4] = Table 1, ratio of IC50 values, value greater than 1 indicates greater selectivity for PDE9A2
[5] = Table 1, 10 concentrations, 4.0 μM cGMP substrate, 1 hour at R.T.
[6] = ratio of IC50 values, value greater than 1 indicates greater selectivity for PDE9A2
[7] = ratio of IC50 values, PDE1A versus PDE9A2, value greater than 1 = greater selectivity for PDE9A2
[8] = Table 3, 4.0 μM cGMP substrate, 1 hour at R.T.
[9] = ratio of IC50 values, PDE1B versus PDE9A2, value greater than 1 = greater selectivity for PDE9A2
[10] = Table 2, ratio of IC50 values, value greater than 1 indicates greater selectivity for PDE9A2
[11] = Table 2, 10 concentrations, 4.0 μM cGMP substrate, 1 hour at R.T.
[12] = ratio of IC50 values PDE1A / PDE9A2, value greater than 1 = greater selectivity for PDE9A2
[13] = 4.0 μM cGMP substrate, 1 hour at R.T.
[14] = ratio of IC50 values PDE1B / PDE9A2, value greater than 1 = greater selectivity for PDE9A2

T1 sequence (P54750 whole entry): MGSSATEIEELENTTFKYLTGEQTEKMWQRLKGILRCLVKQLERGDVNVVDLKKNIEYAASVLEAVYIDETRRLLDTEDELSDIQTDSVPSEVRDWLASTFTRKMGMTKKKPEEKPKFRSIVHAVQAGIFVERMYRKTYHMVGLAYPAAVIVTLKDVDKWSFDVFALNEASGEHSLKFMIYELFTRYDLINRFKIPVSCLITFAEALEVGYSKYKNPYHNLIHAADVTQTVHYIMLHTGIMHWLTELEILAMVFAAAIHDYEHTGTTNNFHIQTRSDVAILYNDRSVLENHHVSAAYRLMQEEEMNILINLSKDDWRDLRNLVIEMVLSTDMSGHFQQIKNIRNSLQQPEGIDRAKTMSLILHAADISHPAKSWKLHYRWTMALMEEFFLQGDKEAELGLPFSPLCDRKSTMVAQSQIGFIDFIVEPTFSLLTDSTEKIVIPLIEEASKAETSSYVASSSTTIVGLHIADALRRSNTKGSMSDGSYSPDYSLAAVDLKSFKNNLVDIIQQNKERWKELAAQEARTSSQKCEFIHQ
T3 sequence (Q01064 whole entry): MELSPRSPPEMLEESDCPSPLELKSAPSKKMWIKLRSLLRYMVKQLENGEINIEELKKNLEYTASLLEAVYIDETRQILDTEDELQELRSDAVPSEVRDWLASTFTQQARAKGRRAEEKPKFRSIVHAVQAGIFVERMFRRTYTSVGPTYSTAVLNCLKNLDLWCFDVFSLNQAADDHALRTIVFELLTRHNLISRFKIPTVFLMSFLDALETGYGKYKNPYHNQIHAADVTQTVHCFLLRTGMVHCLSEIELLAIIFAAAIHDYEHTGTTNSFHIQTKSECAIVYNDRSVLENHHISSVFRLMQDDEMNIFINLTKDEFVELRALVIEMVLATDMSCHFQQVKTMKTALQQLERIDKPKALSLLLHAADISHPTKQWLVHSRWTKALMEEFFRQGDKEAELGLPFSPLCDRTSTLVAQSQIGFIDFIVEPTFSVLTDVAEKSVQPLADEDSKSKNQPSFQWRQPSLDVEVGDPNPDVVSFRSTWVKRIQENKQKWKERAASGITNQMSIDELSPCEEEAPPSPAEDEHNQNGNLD
T2 sequence (O76083 1-533 isoform O76083-2): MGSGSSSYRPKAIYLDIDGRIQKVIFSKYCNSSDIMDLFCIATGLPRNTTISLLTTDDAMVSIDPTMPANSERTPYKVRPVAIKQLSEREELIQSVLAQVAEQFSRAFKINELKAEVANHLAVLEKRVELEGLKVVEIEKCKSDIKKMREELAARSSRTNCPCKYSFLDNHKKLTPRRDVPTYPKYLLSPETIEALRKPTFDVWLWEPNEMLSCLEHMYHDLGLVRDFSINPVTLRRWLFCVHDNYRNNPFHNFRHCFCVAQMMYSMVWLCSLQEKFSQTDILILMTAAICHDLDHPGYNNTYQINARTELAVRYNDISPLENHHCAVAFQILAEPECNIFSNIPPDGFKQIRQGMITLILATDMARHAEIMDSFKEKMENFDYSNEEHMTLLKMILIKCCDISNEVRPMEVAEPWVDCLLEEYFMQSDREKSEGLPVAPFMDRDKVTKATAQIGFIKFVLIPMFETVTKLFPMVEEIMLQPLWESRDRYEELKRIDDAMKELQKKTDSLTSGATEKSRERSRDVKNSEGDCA

PDE1A selectivity (versus PDE9A2) [1, 4]: 184 | IC50 [2, 5]: < 1 µM | PDE1B selectivity (versus PDE9A2) [3, 4]: 400
SMILES: Cc1nccc(CN2CC(C)C(c3nn4c(C5CCOCC5)ncc4c(=O)[nH]3)C2)n1 (single isomer, unassigned; (+)) [(+)-2-((3,4-trans)-4-methyl-1-((2-methylpyrimidin-4-yl)methyl)pyrrolidin-3-yl)-7-(tetrahydro-2H-pyran-4-yl)imidazo[5,1-f][1,2,4]triazin-4(3H)-one]

PDE1A selectivity (versus PDE9A2) [1, 4]: 80 | IC50 [2, 5]: < 1 µM | PDE1B selectivity (versus PDE9A2) [3, 4]: 60
SMILES: Cc1ncc(CN2CC(C)C(c3nn4c(C5CCOCC5)ncc4c(=O)[nH]3)C2)cn1 (single isomer, unassigned; (+)) [(+)-2-((3,4-trans)-4-methyl-1-((2-methylpyrimidin-5-yl)methyl)pyrrolidin-3-yl)-7-(tetrahydro-2H-pyran-4-yl)imidazo[5,1-f][1,2,4]triazin-4(3H)-one]

PDE1A selectivity (versus PDE9A2) [1, 6]: 12 | IC50 [2]: < 1 µM | PDE1B selectivity (versus PDE9A2) [3, 6]: 19
SMILES: Cc1nc(CN2CC(C)C(c3nn4c(C5CCOCC5)ncc4c(=O)[nH]3)C2)cs1 (single isomer, unassigned; (+)) [(+)-2-((3,4-trans)-4-methyl-1-((2-methylthiazol-4-yl)methyl)pyrrolidin-3-yl)-7-(tetrahydro-2H-pyran-4-yl)imidazo[5,1-f][1,2,4]triazin-4(3H)-one]

PDE1A selectivity (versus PDE9A2) [1, 4]: 129 | IC50 [2, 5]: < 1 µM | PDE1B selectivity (versus PDE9A2) [3, 4]: 243
SMILES: Cc1ncc(CN2CC(C)C(c3nn4c(C5CCOCC5)ncc4c(=O)[nH]3)C2)s1 (single isomer, unassigned; (+)) [(+)-2-((3,4-trans)-4-methyl-1-((2-methylthiazol-5-yl)methyl)pyrrolidin-3-yl)-7-(tetrahydro-2H-pyran-4-yl)imidazo[5,1-f][1,2,4]triazin-4(3H)-one]

PDE1A selectivity (versus PDE9A2) [1, 4]: 424 | IC50 [2, 5]: < 1 µM | PDE1B selectivity (versus PDE9A2) [3, 4]: 940
SMILES: CC1CN(Cc2ccc[nH]c2=O)CC1c1nn2c(C3CCOCC3)ncc2c(=O)[nH]1 (single isomer, unassigned; (+)) [(+)-2-((3,4-trans)-4-methyl-1-((2-oxo-1,2-dihydropyridin-3-yl)methyl)pyrrolidin-3-yl)-7-(tetrahydro-2H-pyran-4-yl)imidazo[5,1-f][1,2,4]triazin-4(3H)-one]

PDE1A selectivity (versus PDE9A2) [1, 7]: 123 | IC50 [2, 8]: < 1 µM | PDE1B selectivity (versus PDE9A2) [3, 9]: 58
SMILES: CC1CN(Cc2ncccc2C(F)(F)F)CC1c1nn2c(C3CCOCC3)ncc2c(=O)[nH]1 (single isomer, unassigned; (+)) [(+)-2-((3,4-trans)-4-methyl-1-((3-(trifluoromethyl)pyridin-2-yl)methyl)pyrrolidin-3-yl)-7-(tetrahydro-2H-pyran-4-yl)imidazo[5,1-f][1,2,4]triazin-4(3H)-one]

PDE1A selectivity (versus PDE9A2) [1, 7]: 242 | IC50 [2, 8]: < 1 µM | PDE1B selectivity (versus PDE9A2) [3, 9]: 298
SMILES: Cc1cccnc1CN1CC(C)C(c2nn3c(C4CCOCC4)ncc3c(=O)[nH]2)C1 (single isomer, unassigned; (+)) [(+)-2-((3,4-trans)-4-methyl-1-((3-methylpyridin-2-yl)methyl)pyrrolidin-3-yl)-7-(tetrahydro-2H-pyran-4-yl)imidazo[5,1-f][1,2,4]triazin-4(3H)-one]

PDE1A selectivity (versus PDE9A2) [1, 6]: 337 | IC50 [2]: < 1 µM | PDE1B selectivity (versus PDE9A2) [3, 6]: 337
SMILES: CC1CN(Cc2cnn3c2CCCC3)CC1c1nn2c(C3CCOCC3)ncc2c(=O)[nH]1 (single isomer, unassigned; (+)) [(+)-2-((3,4-trans)-4-methyl-1-((4,5,6,7-tetrahydropyrazolo[1,5-a]pyridin-3-yl)methyl)pyrrolidin-3-yl)-7-(tetrahydro-2H-pyran-4-yl)imidazo[5,1-f][1,2,4]triazin-4(3H)-one]

PDE1A selectivity (versus PDE9A2) [1, 10]: 585 | IC50 [2, 11]: < 1 µM | PDE1B selectivity (versus PDE9A2) [3, 10]: 566
SMILES: CC1CN(Cc2nccc(C(F)(F)F)n2)CC1c1nn2c(C3CCOCC3)ncc2c(=O)[nH]1 (single isomer, unassigned; (+)) [(+)-2-((3,4-trans)-4-methyl-1-((4-(trifluoromethyl)pyrimidin-2-yl)methyl)pyrrolidin-3-yl)-7-(tetrahydro-2H-pyran-4-yl)imidazo[5,1-f][1,2,4]triazin-4(3H)-one]

PDE1A selectivity (versus PDE9A2) [1, 12]: 143 | IC50 [2, 13]: < 1 µM | PDE1B selectivity (versus PDE9A2) [3, 14]: 116
SMILES: Cc1ccnc(CN2CC(C)C(c3nn4c(C5CCOCC5)ncc4c(=O)[nH]3)C2)c1 (single isomer, unassigned; (+)) [(+)-2-((3,4-trans)-4-methyl-1-((4-methylpyridin-2-yl)methyl)pyrrolidin-3-yl)-7-(tetrahydro-2H-pyran-4-yl)imidazo[5,1-f][1,2,4]triazin-4(3H)-one]

PDE1A selectivity (versus PDE9A2) [1, 10]: 182 | IC50 [2, 11]: < 1 µM | PDE1B selectivity (versus PDE9A2) [3, 10]: 220
SMILES: Cc1ccnc(CN2CC(C)C(c3nn4c(C5CCOCC5)ncc4c(=O)[nH]3)C2)n1 (single isomer, unassigned; (+)) [(+)-2-((3,4-trans)-4-methyl-1-((4-methylpyrimidin-2-yl)methyl)pyrrolidin-3-yl)-7-(tetrahydro-2H-pyran-4-yl)imidazo[5,1-f][1,2,4]triazin-4(3H)-one]

PDE1A selectivity (versus PDE9A2) [1, 10]: 105 | IC50 [2, 11]: < 1 µM | PDE1B selectivity (versus PDE9A2) [3, 10]: 496
SMILES: CC1CN(Cc2ncc(N3CCCC3)cn2)CC1c1nn2c(C3CCOCC3)ncc2c(=O)[nH]1 (single isomer, unassigned; (+)) [(+)-2-((3,4-trans)-4-methyl-1-((5-(pyrrolidin-1-yl)pyrimidin-2-yl)methyl)pyrrolidin-3-yl)-7-(tetrahydro-2H-pyran-4-yl)imidazo[5,1-f][1,2,4]triazin-4(3H)-one]

PDE1A selectivity (versus PDE9A2) [1, 7]: 258 | IC50 [2, 8]: < 1 µM | PDE1B selectivity (versus PDE9A2) [3, 9]: 560
SMILES: CC1CN(Cc2ccc(C(F)(F)F)cn2)CC1c1nn2c(C3CCOCC3)ncc2c(=O)[nH]1 (single isomer, unassigned; (+)) [(+)-2-((3,4-trans)-4-methyl-1-((5-(trifluoromethyl)pyridin-2-yl)methyl)pyrrolidin-3-yl)-7-(tetrahydro-2H-pyran-4-yl)imidazo[5,1-f][1,2,4]triazin-4(3H)-one]

PDE1A selectivity (versus PDE9A2) [1, 6]: 20 | IC50 [2]: < 1 µM | PDE1B selectivity (versus PDE9A2) [3, 6]: 21
SMILES: Cc1nc(CN2CC(C)C(c3nn4c(C5CCOCC5)ncc4c(=O)[nH]3)C2)no1 (single isomer, unassigned; (+)) [(+)-2-((3,4-trans)-4-methyl-1-((5-methyl-1,2,4-oxadiazol-3-yl)methyl)pyrrolidin-3-yl)-7-(tetrahydro-2H-pyran-4-yl)imidazo[5,1-f][1,2,4]triazin-4(3H)-one]

PDE1A selectivity (versus PDE9A2) [1, 10]: 42 | IC50 [2, 11]: < 1 µM | PDE1B selectivity (versus PDE9A2) [3, 10]: 76
SMILES: Cc1cnc(CN2CC(C)C(c3nn4c(C5CCOCC5)ncc4c(=O)[nH]3)C2)nc1 (single isomer, unassigned; (+)) [(+)-2-((3,4-trans)-4-methyl-1-((5-methylpyrimidin-2-yl)methyl)pyrrolidin-3-yl)-7-(tetrahydro-2H-pyran-4-yl)imidazo[5,1-f][1,2,4]triazin-4(3H)-one]

PDE1A selectivity (versus PDE9A2) [1, 7]: 708 | IC50 [2, 8]: < 1 µM | PDE1B selectivity (versus PDE9A2) [3, 9]: 389
SMILES: CC1CN(Cc2cccc(C(F)(F)F)n2)CC1c1nn2c(C3CCOCC3)ncc2c(=O)[nH]1 (single isomer, unassigned; (+)) [(+)-2-((3,4-trans)-4-methyl-1-((6-(trifluoromethyl)pyridin-2-yl)methyl)pyrrolidin-3-yl)-7-(tetrahydro-2H-pyran-4-yl)imidazo[5,1-f][1,2,4]triazin-4(3H)-one]

PDE1A selectivity (versus PDE9A2) [1, 4]: 333 | IC50 [2, 5]: < 1 µM | PDE1B selectivity (versus PDE9A2) [3, 4]: 980
SMILES: CC1CN(Cc2ccc(C(F)(F)F)nc2)CC1c1nn2c(C3CCOCC3)ncc2c(=O)[nH]1 (single isomer, unassigned; (+)) [(+)-2-((3,4-trans)-4-methyl-1-((6-(trifluoromethyl)pyridin-3-yl)methyl)pyrrolidin-3-yl)-7-(tetrahydro-2H-pyran-4-yl)imidazo[5,1-f][1,2,4]triazin-4(3H)-one]

PDE1A selectivity (versus PDE9A2) [1, 12]: 780 | IC50 [2, 13]: < 1 µM | PDE1B selectivity (versus PDE9A2) [3, 14]: 1005
SMILES: Cc1cccc(CN2CC(C)C(c3nn4c(C5CCOCC5)ncc4c(=O)[nH]3)C2)n1 (single isomer, unassigned; (+)) [(+)-2-((3,4-trans)-4-methyl-1-((6-methylpyridin-2-yl)methyl)pyrrolidin-3-yl)-7-(tetrahydro-2H-pyran-4-yl)imidazo[5,1-f][1,2,4]triazin-4(3H)-one]

PDE1A selectivity (versus PDE9A2) [1, 4]: 97 | IC50 [2, 5]: < 1 µM | PDE1B selectivity (versus PDE9A2) [3, 4]: 177
SMILES: Cc1ccc(CN2CC(C)C(c3nn4c(C5CCOCC5)ncc4c(=O)[nH]3)C2)cn1 (single isomer, unassigned; (+)) [(+)-2-((3,4-trans)-4-methyl-1-((6-methylpyridin-3-yl)methyl)pyrrolidin-3-yl)-7-(tetrahydro-2H-pyran-4-yl)imidazo[5,1-f][1,2,4]triazin-4(3H)-one]
